Numbers after ± are expanded uncertainties.
Details: Liquid

| SMILES | vapor or sublimation pressure (329 K) [kPa] | vapor or sublimation pressure (337.42 K) [kPa] |
| --- | --- | --- |
| CC(C)=O [acetone] | 100 ± 1.3 |  |
| CO [methanol] |  | 100 ± 1.3 |
